{"source": "patent US20230279379A1", "about": "“METHODS AND MICROFLUIDIC DEVICE FOR PRODUCING EXTRACELLULAR VESICLES” (THE BOARD OF TRUSTEES OF THE UNIVERSITY OF ILLINOIS, priority 2022, published 2023)", "key": {"Primary human MSCs [1]": {"tested_on": "Primary human MSCs", "experiment": "EV secretion per cell from MSCs on hydrogel substrates, nanoparticle tracking analysis", "assay_type": "cell-based", "details": "5 μM CK869; hydrogels", "procedure": "Cell Seeding on Hydrogels. Hydrogel discs were placed in ultra-low binding polystyrene well plates (Corning) to ensure cells attach to hydrogels and not the plate surface. Hydrogels were washed with Hank's buffered salt solution (HBSS, Thermo Fisher Scientific) for at least 3 days before seeding cells. Cells were seeded at a low density (25 cells/mm^2). After seeding, hydrogels were washed thoroughly to remove unattached cells. Drug treatments of 3 μM MnCl2 (Thermo Fisher Scientific), 200 nM EMD 121974 sold under the tradename Cilengitide® (Cayman) and 5 μM CK869 (Cayman) were applied during and after cell adhesion to substrates. To evaluate the number of live cells seeded on substrates, cells were detached by incubating with a natural enzyme mixture with proteolytic and collagenolytic enzyme activity sold under the tradename ACCUTASE® Cell Detachment Solution (Innovative Cell Technologies, Inc.) for 10 minute at 37° C. Cells were then washed by centrifugation and directly added to HBSS containing calcein AM (1:2000; Biotium), ethidium bromide (1:2000; Thermo Fisher Scientific), and a predefined number of allophycocyanin (APC) beads (BD). After incubation at room temperature (RT) for 10 minutes, the samples were analyzed for live and dead cell number by flow cytometry.\nParticle Size and Number Characterization. Particle size and number were obtained using Nanoparticle Tracking Analysis 3.2 (NTA) via NanoSight NS300 (Malvern) using a 405 nm laser. Samples were introduced by syringe pump at a rate 100 μL/min. Three thirty-second videos were acquired using camera level 14 followed by detection threshold 7. Camera focus, shutter, blur, minimum track length, minimum expected particle size and maximum jump length were set automatically by the software. Samples were diluted as needed to maintain particles per video from 100-2000. To ensure specificity, all samples were tested as compared to appropriate blank conditions.\nTo test the effect of substrate mechanics on EV secretion from MSCs, hydrogel substrates were engineered which were composed of alginate polymer conjugated with the cell adhesion peptide Arg-Gly-Asp (RGD) that binds primarily to αvβ3 and α5β1 integrins. Alginate-RGD hydrogels can be formed either covalently through adipic acid dihydrazide or physically through divalent cations, resulting in elastic or stress-relaxing hydrogels, respectively. For both types of hydrogels, elastic modulus (Young's modulus, E) of ˜3 kPa ‘soft’ and E ˜20 kPa ‘stiff’ were considered values that represent a physiologically relevant range of substrate elasticity for MSC mechanosensing, while E is ˜0.1 GPa for conventional plastic substrates. Primary human bone marrow MSCs were allowed to adhere to substrates for 24 hours followed by washout and collection of the serum-free conditioned medium from MSCs after 24 hours. After centrifugation of the medium at 10,000 g to remove cell, apoptotic, and larger particle fractions, particles remaining in the medium were analyzed by nanoparticle tracking analysis and normalized to the number of live adhered cells counted by flow cytometry (see Methods). MSCs were seeded at low density (˜25 cells/mm^2) to avoid potential effects from cell-cell interactions. […] Thus, focus was placed on the EVs remaining in the supernatant after the 10,000 g centrifugation. For these EVs, the particle size distribution remained similar across different substrates with median diameter ˜120 nm (FIG. 1B). […] Moreover, EVs from different substrates expressed similar levels of late endosomal markers CD63 and CD9. Importantly, levels of ribosomal RNA (rRNA) in particle preparations were similar across hydrogels or plastic substrates, and rRNA as a percentage of total RNA was lower than that found in untreated MSCs or particles derived from H2O2-treated apoptotic MSCs, ruling out apoptosis as a potential factor of increased EV secretion on the soft hydrogel. […]"}, "Primary human MSCs [2]": {"tested_on": "Primary human MSCs", "experiment": "EV secretion per cell from MSCs on hydrogel substrates, nanoparticle tracking analysis", "assay_type": "cell-based", "details": "5 μM CK869, ~4 hour adhesion, EV collection after 24 hours"}}, "data": [{"smiles": "COc1ccc(N2C(=O)CSC2c2cccc(Br)c2)c(OC)c1", "note": "(stereo not drawn) [CK869]", "values": [{"measurement": "EV secretion compared to DMSO", "setting": "Primary human MSCs [1]", "value": "significantly increased EV secretion"}, {"measurement": "EV secretion on the soft hydrogel", "setting": "Primary human MSCs [2]; soft hydrogel", "value": "to a lesser but significant extent"}, {"measurement": "EV secretion on the stiff hydrogel", "setting": "Primary human MSCs [2]; stiff hydrogel", "value": "increased EV secretion on the stiff hydrogel"}]}]}
